Data: paper PMC3024946, “Hydroxyproline-containing collagen analogs trigger the release and activation of collagen-sequestered proMMP-2 by competition with prodomain-derived peptide P33-42” (Fibrogenesis & Tissue Repair, 2011)

How the values were obtained:
[1] = tested on: gelatinase activity in rat cirrhotic liver; assay: In situ zymography of cirrhotic liver, negative controls; assay type: biochemical; conditions: 10 mM ethylenediaminetetraacetic acid or 1 mM phenanthroline; DQ-gelatine
Protocol: As described earlier, in situ zymography was performed with cryostat sections (6 μm) of rat cirrhotic liver. In brief, sections were dried, overlayed with 100 μg/ml DQ-gelatine (λex/em, 495/515 nm; Molecular Probes, Eugene, OR, USA) and 0.5% (wt/vol) low-melt agarose in MMP activity buffer. […] Samples were inserted into coverslips and incubated at 40°C for 1 h before being transferred to room temperature for an additional 2 to 16 h. Hoechst 33342 (Invitrogen, Carlsbad, California, USA) nuclear dye was used for counterstaining. Images were obtained by fluorescence microscopy using a Nikon E800 photodocumentation microscope (Nikon Imaging, Düsseldorf, Germany).

ProMMP-9 = assay: Solid-phase binding of [125I]-proMMP-9 to immobilized collagens/peptides (microwells); design: species or system human; conditions: ProMMP-9, 2 ng/well; coated wells; 4°C, 2 h; residual radioactivity; mean ± SD, at least five experiments in triplicate
Protocol: (§1) Human recombinant proMMPs and in vitro activated MMPs were obtained from Invitek and were labeled with the [^125I]-Bolton-Hunter reagent according to the manufacturer's instructions (PerkinElmer, Rodgau, Germany) before the buffer was exchanged for phosphate-buffered saline (PBS) with 0.05% (vol/vol) Tween 20 by gel filtration as described previously. Specific radioactivity for [^125I]-MMPs was 3-9 × 10^4 cpm/ng. Precipitation with 10% (wt/vol) trichloroacetic acid and 200 μg of BSA recovered 96% to 100% of protein-bound radioactivity. Aliquots of labeled MMPs were frozen and stored at -80°C. The activity and integrity were checked by substrate gel zymography using SDS-PAGE and autoradiography with overnight exposure to Biomax MS film (Kodak, Stuttgart, Germany) (Figure 2A).
(§2) Native human CI, CIII and CVI were purified from skin tissue and placenta. The CI single chains α1(I) and α2(I) were obtained and modified as described previously. To prepare defined fragments, 2 mg of α1(I) were dissolved in 1 ml of 70% (vol/vol) formic acid at room temperature, the tubes were flushed with nitrogen for 10 min, and then 2 mg of CB were added. After incubation for 4 h at 37°C, free CB was neutralized and the samples were lyophilized. The peptides CB3, CB6, CB7 and CB8 were separated from the reaction mixture by gel filtration followed by ion-exchange chromatography. The resulting peptides were characterized by amino acid analysis and SDS-PAGE [45, 46]. The CB peptides had the following melting temperatures: CB3, 23.9°C; CB6, 26.7°C; CB7, 28.1°C; and CB8, 28.0°C [31].
(§3) The following collagen analogs and control peptides were synthesized as described previously: (GPO)10, H-Gly-Cys-Hyp-(Gly-Pro-Hyp)10-Gly-Cys-Hyp-Gly-NH2; (GPP)10, H-Gly-Cys-Pro-(Gly-Pro-Pro)10-Gly-Cys-Pro-Gly-NH2; and GAP, H-Gly-Ala-Cys-(Gly-Ala-Pro)5-Gly-Phe-Hyp-Gly-Glu-Arg-(Gly-Ala-Pro)5-NH2. Peptides (POG)10, (PPG)10 and (POG)5 were purchased from Peptide International (Louisville, KY, USA). Spontaneous triple-helix assembly was approved by polarimetry over a 10-cm path length at 1°C/min in 10 mM phosphate buffer, pH 7.4. At 5 mg/ml, midpoints of melting curves occurred at 82.3 ± 1.4°C for (GPO)10 and at 45.8 ± 0.8°C for (GPP)10. […] Graphs were calculated from the primary data using a custom fitting program written by D.A. Slatter (Department of Biochemistry, University of Cambridge, Cambridge, UK [48]) to model different possible transitions. All collagens, CI derivatives and peptides were stored in stock solutions of 2 mg/ml in 150 mM acetic acid at -20°C.
(§4) ProMMP-2 and proMMP-9 or actMMP-2 and actMMP-9 were bound to nitrocellulose and polystyrene-immobilized native collagens, CI chains, CB peptides or structural analogs. Serial dilutions of collagens or CI derivatives in 150 mM acetic acid were dotted at 3 × 3 μl to a nitrocellulose membrane with high protein-binding capacity (GE Healthcare, Munich, Germany). Air-dried membranes were blocked with PBS and 0.3% (vol/vol) Tween 20 overnight at 4°C, washed three times, and incubated with 1 ng/ml [^125I]-pro- and actMMP-2 and pro- and actMMP-9 in PBS and 0.3% (vol/vol) Tween 20 for 2 h at room temperature. Membranes were washed again and air-dried, and bound MMP was monitored by autoradiography. In parallel, polystyrene microtiter plates (Dynex, Chantilly, VA, USA) were coated with collagen proteins and peptides. Here 2 μg/well or 200 ng/well proteins and peptides or BSA as control were immobilized in 100 μl of 50 mM ammonium bicarbonate buffer, pH 9.6, by overnight incubation at 4°C. Immobilization efficacies were 20% to 45% of total proteins. Wells were washed three times with PBS, and nonspecific binding sites were blocked with PBS and 0.05% (vol/vol) Tween 20 for 1 h at room temperature. All incubation steps were performed with 2 ng of [^125I]-MMPs at 4°C for 2 h. […]

ProMMP-2 = assay: Solid-phase binding of [125I]-proMMP-2 to immobilized collagens/peptides (microwells); design: species or system human; conditions: for Binding of [125I]-MMPs: ProMMP-2, 2 ng/well, coated wells, 4°C, 2 h, residual radioactivity, mean ± SD, at least five experiments in triplicate
Protocol: as §1, §2, §3, §4

ActMMP-2 = assay: Solid-phase binding of [125I]-actMMP-2 to immobilized collagens/peptides (microwells); design: species or system human; conditions: for Binding of [125I]-MMPs: ActMMP-2, 2 ng/well, coated wells, 4°C, 2 h, residual radioactivity, mean ± SD, at least five experiments in triplicate
Protocol: as §1, §2, §3, §4

ActMMP-9 = assay: Solid-phase binding of [125I]-actMMP-9 to immobilized collagens/peptides (microwells); design: species or system human; conditions: ActMMP-9, 2 ng/well; coated wells; 4°C, 2 h; residual radioactivity; mean ± SD, at least five experiments in triplicate
Protocol: as §1, §2, §3, §4

[2] = Triple-helix melting temperature; assay type: physicochemical; conditions: at 5°C; polarimetry
Protocol: as §2, §3

proMMP-2 / CI = molecular target: T1, proMMP-2 / CI (Homo sapiens, UniProt P08253); assay: SPR, competition of proMMP-2 binding to CI, MMP activity buffer with Ro 28-2653; conditions: SPR; MMP activity buffer with Ro 28-2653
T1 construct: prodomain-containing proMMP-2 or proMMP-9; purchased Invitek
T1 sequence (P08253 30-660 limits assumed): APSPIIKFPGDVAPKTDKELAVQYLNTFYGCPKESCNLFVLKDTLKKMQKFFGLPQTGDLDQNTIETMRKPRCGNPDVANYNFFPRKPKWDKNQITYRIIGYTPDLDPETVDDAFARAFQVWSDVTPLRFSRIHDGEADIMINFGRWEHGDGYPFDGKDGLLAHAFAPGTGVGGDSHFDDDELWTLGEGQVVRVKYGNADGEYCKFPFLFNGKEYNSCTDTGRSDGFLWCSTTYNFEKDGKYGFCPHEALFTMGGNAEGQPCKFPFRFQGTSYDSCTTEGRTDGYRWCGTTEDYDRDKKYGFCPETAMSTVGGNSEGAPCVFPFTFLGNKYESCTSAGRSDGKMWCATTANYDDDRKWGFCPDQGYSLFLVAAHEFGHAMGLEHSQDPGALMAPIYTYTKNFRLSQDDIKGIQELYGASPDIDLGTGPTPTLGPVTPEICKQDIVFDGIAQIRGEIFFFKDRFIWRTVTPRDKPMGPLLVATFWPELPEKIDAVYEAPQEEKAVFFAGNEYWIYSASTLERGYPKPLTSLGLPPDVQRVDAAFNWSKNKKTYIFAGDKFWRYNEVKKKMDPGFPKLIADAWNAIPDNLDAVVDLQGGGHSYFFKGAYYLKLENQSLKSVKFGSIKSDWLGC
Protocol: (§5) Sensor chip preparations and SPR measurements were performed using a BiacoreX device and the Bia-evaluation software (version 3.2; Biacore, Uppsala, Sweden). The pepsin-resistant triple-helical part of human fibrillar CI (100 μg/ml) in 10 mM acetate coupling buffer, pH 4.8, was immobilized to a dextran matrix-sensor chip at a flow rate of 5 μl/min, resulting in 5,500 resonance units from CI covalently linked via its primary amino groups. The control flow cell was prepared using the coupling buffer without CI. Surfaces were activated and blocked as described previously. Immediately after thawing, pro- and actMMP-2 and pro- and actMMP-9 were diluted to 100 to 250 nM in MMP activity buffer or in PBS and 0.05% (vol/vol) Tween 20. For SPR measurements, flow rates were 10 μl/min at 25°C, and equilibrium was typically reached after 30 to 60 s. The effects of (GPO)10, GAP, (POG)5, (GPP)10 and P33-42 on MMP-2 and MMP-9 binding to CI and their enzymatic activity were determined by adding the binding competitors to the (pro- and act)MMP-2 and MMP-9 solution in 10- to 150-fold molar excesses. Effects independent of MMP-2 and MMP-9 activity were monitored in the presence of Ro 28-2653 (1 μM) during SPR analysis. The gelatinase inhibitor Ro 28-2653 was a generous gift from H.-W. Krell (Roche, Grenzach-Wyhlen, Germany). Sensor surfaces were regenerated with 10 mM glycine, pH 2.3, for 1 min between runs, and sensor chips were used up to 25 times. Kinetic parameters were analyzed using the 1:1 binding model with drifting baseline and subtraction of the control flow cell binding from sensorgrams obtained with immobilized CI. Binding constants (Kd) were calculated from the association (ka) and dissociation rates (kd) obtained from individual binding curves at different concentrations. Individual drifts of the resonance signal were fitted locally, and χ^2 values of 0.2% to 1.0% of the maximum resonance value were considered good fits.

MMPs / CI = assay: SPR, effect of control peptide on interaction of the MMPs with CI; assay type: binding, human; conditions: linear control peptide, not shown
Protocol: as §5, with “Immediately after thawing, pro- and actMMP-2 and pro- and actMMP-9 were diluted to 100 to 250 nM in MMP activity buffer or in PBS and 0.05% (vol/vol) Tween 20. For SPR measurements, flow rates were 10 μl/min at 25°C, and equilibrium was typically reached after 30 to 60 s.” left out, “The gelatinase inhibitor Ro 28-2653 was a generous gift from H.-W. Krell (Roche, Grenzach-Wyhlen, Germany). Sensor surfaces were regenerated with 10 mM glycine, pH 2.3, for 1 min between runs, and sensor chips were used up to 25 times.” left out, “Individual drifts of the resonance signal were fitted locally, and χ^2 values of 0.2% to 1.0% of the maximum resonance value were considered good fits.” left out

| Binding of [125I]-MMPs (ProMMP-9) | Binding of [125I]-MMPs (ProMMP-2) | Binding of [125I]-MMPs (ActMMP-2) | Binding of [125I]-MMPs (ActMMP-9) | maximum binding (ActMMP-2; actMMP-2, text) [%] | helicity [2] | competition with proMMP-2 binding to CI (proMMP-2 / CI) | interaction with control peptides (ProMMP-2; pro- and act-forms of MMP-2 and MMP-9, in words) | Compound | gelatinase activity [1] | effect on interaction of the MMPs with CI (MMPs / CI) |
| --- | --- | --- | --- | --- | --- | --- | --- | --- | --- | --- |
| 37.6 ± 0.9 % of maximum control | 36.0 ± 4.0 % of maximum control | 19.0 ± 3.0 % of maximum control | 4.7 ± 0.3 % of maximum control | 19 |  |  |  | α1(I): α1 chain of collagen type I |  |  |
| 12.3 ± 0.8 % of maximum control | 14.1 ± 1.8 % of maximum control | 4.8 ± 0.6 % of maximum control | 2.4 ± 0.1 % of maximum control |  |  |  |  | CVI: native human collagen type VI |  |  |
| 1.3 ± 0.2 % of maximum control | 1.7 ± 1.0 % of maximum control | 1.5 ± 0.7 % of maximum control | 0.7 ± 0.2 % of maximum control |  | nonhelical even at 5 °C | less efficient | only marginal interactions | H-Gly-Ala-Cys-(Gly-Ala-Pro)5-Gly-Phe-Hyp-Gly-Glu-Arg-(Gly-Ala-Pro)5-NH2 [GAP, linear Gly-Ala-Pro (GAP) control peptide] |  | no effect |

The next lines start with the compound.

| Compound | Binding of [125I]-MMPs (ProMMP-9) | Binding of [125I]-MMPs (ProMMP-2) | Binding of [125I]-MMPs (ActMMP-2) | Binding of [125I]-MMPs (ActMMP-9) | maximum binding (ActMMP-2; actMMP-2, text) [%] | helicity [2] | competition with proMMP-2 binding to CI (proMMP-2 / CI) | interaction with control peptides (ProMMP-2; pro- and act-forms of MMP-2 and MMP-9, in words) | gelatinase activity [1] | effect on interaction of the MMPs with CI (MMPs / CI) |
| --- | --- | --- | --- | --- | --- | --- | --- | --- | --- | --- |
| c1cnc2c(c1)ccc1cccnc12 [phenanthroline] |  |  |  |  |  |  |  |  | no generation of bright green fluorescence was observed |  |
| α2(I): CI single chain α2(I) | 21.8 ± 1.1 % of maximum control | 30.2 ± 2.3 % of maximum control | 10.7 ± 1.8 % of maximum control | 2.6 ± 0.2 % of maximum control |  |  |  |  |  |  |
| O=C(O)CN(CCN(CC(=O)O)CC(=O)O)CC(=O)O [ethylenediaminetetraacetic acid] |  |  |  |  |  |  |  |  | no generation of bright green fluorescence was observed |  |
